In patent US12383631B2, “Immune antigen specific IL-18 immunocytokines and uses thereof” (Bright Peak Therapeutics AG, priority 2022, dated 2025):

System: parental PD-1 negative KG-1 cells
Experiment: IFN gamma secretion assay in parental PD-1 negative KG-1 cells (Example 11)
Type: cell-based, human
Settings: IFNγ secretion, 20-24 h
Procedure: The KG-1 cell line was used to generate a PD-1 expressing cell line and furthermore, to measure IFNγ release upon incubation with TL-18 variants and corresponding TL-18 immunocytokines.
IFNγ release was assessed in PD-1 positive (transduced) KG-1 cells, as well as in the parental PD-1 negative cells. 0.5×10^5 cells were seeded into a 96-well U-bottom plate in culture media (RPMI, 10% FBS, […]) and stimulated with IL-18 variants/ICs for 20-24 h. The test items were diluted to 100 nM in culture medium, followed by 7 10-fold serial dilutions. The lowest concentration assessed was […]. After incubation, IFNγ release was measured using the LEGENDplex custom human mix and match KIT (Biolegend LEGENDplex™ Human IFN-γ Capture Bead B5, 13×#740942, LEGENDplex™ P 1 Essential Immune Response Panel Detection Abs, #740931, LEGENDplex™ Buffer Set A #740368). To this end, cell culture supernatant was collected and diluted 1:1 with Assay Buffer. Fluorescence measurements were done with a Quanteon Flow Cytometer from Acea Biosciences. For analysis, MFI values (median fluorescence intensity) were exported and plotted against concentrations used. The EC50 values (half maximal effective concentration) were calculated based on a variable slope and four parameter analysis using GraphPad PRISM software version 9.

Composition B: immunocytokine: Atezolizumab/Tecentriq (anti-PD-L1) conjugated to IL-18 polypeptide SEQ ID NO: 30
EC50: 1.6 pM
